Assay results published in publication PMC10845965, “Gold(I) ion and the phosphine ligand are necessary for the anti-Toxoplasma gondii activity of auranofin” (Microbiology Spectrum, 2024).
Values joined by “and” are separate entries in the source; they are usually repeats but may differ in a detail not shown here. Equal values may be shown once. “Also recorded” adds a separate entry of the source. Read-outs that look alike come from different tables or passages of the source.

Assays:
RH T. gondii = test: Plaque assay and IC50 determination; format: cell-based, Toxoplasma gondii; conditions: plaque assay, 5 days; for inhibition of T. gondii growth in vitro: 0–40 µM
Description: We measured the inhibition of parasite growth by plaque assay as modified from a previously established method ([27], [28]). Confluent monolayers of HFF in six-well plates were inoculated with 1 × 10^2 parasites of RH T. gondii. Immediately after, each well received D10 containing specified concentrations of each compound. Plates were incubated undisturbed for 5 days at 37°C in a humidified incubator with 5% CO2. On the fifth day, each well was rinsed once with phosphate-buffered saline (PBS), fixed with 4% paraformaldehyde (15 min at room temperature), and stained with crystal violet for 2–3 min. Plaques (visualized as irregular clear areas of cell lysis against the violet background of intact host cells) were enumerated for each well. To generate the inhibition curve, plaque numbers (represented as a percentage of plaques relative to the no drug control) were plotted vs drug concentration. The IC50 value was calculated from the inhibitor vs normalized response curve with variable slope. The results represented the average of three independent IC50 assays ± standard error of the mean.

HFF host cells = test: Host cell viability and TD50 determination; format: cell-based, human; conditions: 5 days incubation, tetrazolium assay
Description: Confluent monolayers of HFF host cells (approximately 1 × 10^4) plated in clear bottom 96-well plates were treated with twofold dilutions of compounds of interest. After 5 days of incubation, 15 µL of dye solution (tetrazolium salt) was added to each well. The plates were incubated at 37°C for 4 hours; then, the reaction was stopped to solubilize the formazan product (Cell Titer 96 Nonradioactive Cell Proliferation Assay Promega). Absorbance at 570 ʎ (A570) was recorded using a multimode microplate plate reader (Molecular Devices Spectramax i5, SoftMax Pro 7.0.2 Software). The A570 absorbance reading is directly proportional to the number of viable cells. The values are presented as percentages of cell viability relative to the untreated controls (defined as 100% survival) and plotted against the log of compound concentrations. The log (auranofin derivative) vs cell viability curve with variable slope was generated to calculate TD50 values.

[1] = test system: YFP+ RH parasites (T. gondii) invading HFF; test: Invasion assay; format: cell-based, Toxoplasma gondii
Description: We performed invasion assays with or without pre-treatment of T. gondii tachyzoites with auranofin, as modified from previously described assays ([28][–][31]). We used RH parasites expressing YFP ([32]). First, we determine the best concentration of auranofin to achieve stable host cell morphology and viability (HFF) while maximizing the effect of auranofin in T. gondii by titration of auranofin (doses ranging from 1 to 5 µM). The best auranofin dose fitting our criteria was 3 µM. Therefore, we performed a modified invasion assay using 2.5 × 10^6 parasites freshly lysed YFP+ RH parasites ([29]) that were filtered and centrifuged before each assay as follows: […]
After the 30-min invasion, all host cells were washed with PBS and fixed with 4% paraformaldehyde, blocked with 3% bovine serum albumin (BSA), and then incubated with anti-SAG-1 antibody (DG52) (David Sibley, Washington University in St. Louis) ([4]) for 1 hour, followed by incubation with goat anti-mouse IgG conjugated to Alexa-594 fluorophore (A19069, Thermo Fisher). For quantification, eight randomly selected fields (with a minimum of 300 parasites) were counted for each sample. […] The invasion rate was calculated by dividing the number of intracellular parasites by the total number of parasites counted.

[2] = test system: YFP+ RH parasites (T. gondii) in HFF; test: Replication assay; format: cell-based, Toxoplasma gondii
Description: Confluent HFF monolayers were infected with 5 × 10^5 YFP+ RH parasites in coverslips. Following 1-hour incubation at 37°C to allow for invasion, the monolayer was rinsed with PBS, and D10 in DMSO (control) or auranofin containing (2.5 µM) media was added back. Coverslips were then incubated for 24 hours to allow for parasite replication. Coverslips were then fixed in 4% paraformaldehyde and mounted with DAPI-containing mounting media. Parasites were identified as DAPI+/YFP+ under fluorescence microscopy. The number of parasites per parasitophorous vacuole was counted across 10 random fields of view per coverslip. At least 100 parasitophorous vacuoles (PV) per condition were counted from three independent experiments. Results were grouped into the following categories according to the number of parasites per PV: 1, 2, 4, and >4 parasites. A chi-square trend test was used to determine the statistical difference between the PV category of the control and auranofin treatment from three independent experiments.

T. gondii in HFF = test: Egress assay (LDH release); format: cell-based, Toxoplasma gondii; conditions: 30 hours infection, then 40 min with A23187 5 µM, zaprinast 57 µM or auranofin 5 µM
Description: The egress assay was modified from previously published methods to measure lactate dehydrogenase (LDH) content as a function of egress (host membrane damage induced by parasite egress) ([33], [34]). Confluent monolayers of HFF in a 24-well plate were inoculated with 5 × 10^5 parasites (freshly mechanically released by needle and filtered through a 3 µm filter) for 30 hours before each drug treatment in three technical triplicates. These infected HFF monolayers were rinsed with 37°C Ringer’s solution (Ward’s Science) three times and supplied with 5 µM calcium ionophore A23187 (ACROS), 57 µM Zaprinast (Alfa Aesar), 5 µM auranofin (Enzo Life Sciences), or DMSO control (all in 5 µl) for 40 min in 5% CO2 and 37°C. The culture supernatant was collected from wells and centrifuged at 4°C and 500 g for 5 min. The solution was kept at 4°C and assayed immediately for the LDH content. The A490 reading is directly proportional to a known amount of LDH (standard curve) (CytoTox 96 Nonradioactive Cytotoxicity Assay, Promega). Egress induced by each drug is presented as a relative value after subtracting control levels of LDH induced by DMSO alone (the solvent for all drugs included in this assay) from the levels of LDH induced by the drugs. A t-test to determine the statistical difference between the relative egress triggered by auranofin and A23187 or auranofin and Zaprinast from three independent experiments was used.

[3] = test system: extracellular T. gondii RH parasites; test: Parasite size by flow cytometry (forward scatter); format: cell-based, Toxoplasma gondii; conditions: auranofin 2.5 µM
Description: (§1) A confluent monolayer of HFF was infected with purified RH parasites (freshly mechanically released by needle and filtered through a 3 µm filter). The monolayer remained undisturbed for 24 hours to allow for invasion and replication. On the day of treatment, extracellular parasites were mechanically released and harvested after differential centrifugation ([35]) at 35 × g for 5 minutes to prevent parasite loss before processing. The supernatant was then collected and centrifuged at 1,350 × g for 10 minutes to pellet the extracellular parasites. Parasites were plated in a 12-well plate (2.7 × 10^7 per well) into 1 mL of D10 in DMSO (control) or auranofin (2.5 µM) containing media and incubated for 24–48 hours at 37°C with 5% CO2 before collection.
Parasite size after treatment with auranofin was determined by flow cytometry (forward scattering). At the end of each incubation time, parasites (1 × 10^5) were resuspended in 1 mL of PBS to prepare them for flow cytometry.

[4] = test system: extracellular T. gondii RH parasites; test: Annexin V assay (phosphatidylserine externalization); format: cell-based, Toxoplasma gondii; conditions: auranofin 2.5 µM, 24 hours; control 11.2 ± 2.937
Description: as §1
Given the smaller size of parasites after auranofin treatment, we evaluated whether T. gondii death occurred by apoptosis via Annexin V assays (Invitrogen). After 24 hours of treatment, parasites were collected, washed with PBS, and resuspended in Annexin binding buffer (10 mM HEPES, 140 mM NaCl, and 2.5 mM CaCl2, pH 7.4) at a concentration of 10^6 parasites per mL. One hundred microliters of this parasite suspension was stained with Annexin V-Alexa fluor conjugate before flow cytometry analysis. A t-test was used to determine the statistical difference between control or auranofin treatment groups from three independent experiments.

[5] = test system: Leishmania spp. (promastigotes and amastigotes); design: method as in PMID 24328400; conditions: cited from earlier work
[6] = Fig 7, unit inferred, read-out: IC50
[7] = HFF infected with RH T. gondii, read-out: IC50 (inhibition of parasite growth)

CC(=O)OC[C@H]1O[C@@H]([S-])[C@H](OC(C)=O)[C@@H](OC(C)=O)[C@@H]1OC(C)=O.CCP(CC)CC.[Au+] [Auranofin]
IC50 (RH T. gondii; [6]): 560 nM
TD50 (cytotoxicity in host cells) (HFF host cells): 5.14 µM
invasion rate (T. gondii that successfully invaded host cells) ([1]; parasites pre-treated with auranofin 3 µM for 30 min before invasion, control 35%): 18%
invasion rate (T. gondii that successfully invaded host cells) ([1]; without pre-treatment, auranofin 3 µM during 30 min invasion, control 59%): 60%
host cell monolayer integrity ([2]; HFF monolayer, 24 hours of auranofin treatment): did not show changes in the monolayer integrity
effect on parasite replication (parasites per parasitophorous vacuole) ([2]; auranofin 2.5 µM for 24 hours after 1 hour invasion): did not inhibit parasite replication
relative egress level (LDH, normalized to DMSO) (T. gondii in HFF): 0.2768 ± 0.034
relative egress level (LDH, normalized to DMSO) (T. gondii in HFF; listed as auranofin): 0.2768 ± 0.03435 and 0.3272 ± 0.009
parasite size (FSC-H) ([3]; 24 hours, control 201.2 ± 4.064): 152.7 ± 8.225
parasite size (FSC-H) ([3]; 48 hours, control 169.9 ± 66.25): 123.5 ± 7.339
phosphatidylserine externalization (PS) by Annexin V assay [4]: 29.16 ± 3.615 relative fluorescent units

CNc1ccc2oc(C[C@H]3O[C@@]4(CC[C@H]3C)O[C@H]([C@H](C)C(=O)c3ccc[nH]3)[C@H](C)C[C@H]4C)nc2c1C(=O)O [A23187]
relative egress level (LDH, normalized to DMSO) (T. gondii in HFF): 0.4533 ± 0.01148

CCCOc1ccccc1-c1nc2nn[nH]c2c(=O)[nH]1 [Zaprinast, zaprinast]
relative egress level (LDH, normalized to DMSO) (T. gondii in HFF): 0.3272 ± 0.009
relative egress level (LDH, normalized to DMSO) (T. gondii in HFF; listed as zaprinast): 0.2768 ± 0.034

[Cl][Au].c1ccc(P(c2ccccc2)c2ccccc2)cc1 [Compound 31]
IC50 (RH T. gondii; [7]): 1410 nM
TD50 (cytotoxicity in host cells) (HFF host cells): 178 µM
toxicity to host cells compared with auranofin [5]: less toxic to host cells than auranofin and compounds 6, 10, and 39
antiparasitic activity against Leishmania spp. compared with auranofin ([5]; extracellular and intracellular forms): higher IC50 than auranofin

O=C(O)CC([S-])C(=O)O.[Au+] (stereo not drawn) [Aurothiomalate, aurothiomalate]
inhibition of T. gondii growth in vitro (RH T. gondii): neither aurothioglucose nor aurothiomalate inhibited the growth; also recorded: did not display inhibitory activity

[Cl][Au][PH](Cc1ccccc1)(c1ccccc1)c1ccccc1 [Compound 6]
IC50 (RH T. gondii; [6]): 450 nM
IC50 (RH T. gondii; [7]): 460 nM
TD50 (cytotoxicity in host cells) (HFF host cells): 4.87 µM

OC[C@H]1O[C@H]([S-])[C@H](O)[C@@H](O)[C@@H]1O.[Au+] [Aurothioglucose, aurothioglucose]
inhibition of T. gondii growth in vitro (RH T. gondii): did not display inhibitory activity
inhibition of T. gondii growth in vitro (RH T. gondii; listed as aurothioglucose): neither aurothioglucose nor aurothiomalate inhibited the growth
